Reference: patent publication US11541029B2, “High penetration compositions and their applications” (Techfields Pharma Co., Ltd., priority 2008, dated 2023)

What was measured:
[1] = test system: GK rats (SLAC/GK, type 2 diabetes); test: Anti-diabetes (type II) activity of HPCs of NSAIAs in GK rats; assay type: in vivo; settings: 30 mg/kg transdermally once per day, no fasting
Method: (§1) A HPC in the present disclosure lowered blood glucose levels in rat models (SLAC/GK, type 2 diabetes, n=7). 30 mg/kg of 8% diethylaminoethyl acetylsalicylate.HCl salt (P-1, in 25% ethanol); 4-acetamidophenyl salicylyldimethylaminobutyrate.HCl (P-6, in 25% ethanol), diethylaminoethyl 5-(2,4-difluorophenyl)acetylsalicylate.5-(2,4-difluorophenyl)acetylsalicylic acid salt (P-8, in 25% ethanol), diethylaminoethyl salicylsalicylate.HCl salt (P-9, in 25% ethanol), diethylaminoethyl salicylate.AcOH(P-10, in 25% ethanol), diethylaminoethyl 5-acetamido-acetylsalicylate.HCl(P-58, in 25% ethanol), diethylaminoethyl acetylsalicylsalicylate. HCl salt (P-59, in 25% ethanol), diethylaminoethyl acetylsalicylsalicylsalicylate. HCl salt (P-60, in 25% ethanol) were administered transdermally to the backs (6 cm^2, fur was shaved) of GK rats (SLAC/GK, 14-16 weeks old) and normal SD rats (SLAC/SD, 14-16 weeks old) once per day (at 8 am) for 6 weeks.
(§2) The blood glucose levels were measured once every 3 days at 4:30 pm (no fasting) from the third week to the sixth week as shown in Table 10a and 10b. […] Moreover, the blood glucose levels of the rats stayed at normal level (6-9 mmol/L, no fasting) after the treatment was stopped for 40 days.

normal SD rats (SLAC/SD) = test: Blood glucose in normal SD rats treated with HPCs of NSAIAs; assay type: in vivo; settings: 30 mg/kg transdermally once per day, no fasting
Method: as §1, §2

SLAC/DB/DB obese mice = test: Blood glucose and blood lipid levels in DB/DB mice; assay type: in vivo; settings: 30 mg/kg transdermally once per day
Method: HPCs in the present disclosure lowered blood glucose levels and blood lipid levels in mice models (SLAC/DB/DB, obese mice, n=7). 30 mg/kg of 8% diethylaminoethyl acetylsalicylate.HCl salt (P-1, in 25% ethanol); 4-acetamidophenyl salicylyldimethylaminobutyrate.HCl (P-6, in 25% ethanol), diethylaminoethyl 5-(2,4-difluorophenyl)acetylsalicylate.5-(2,4-difluorophenyl)acetylsalicylic acid salt (P-8, in 25% ethanol), diethylaminoethyl salicylsalicylate.HCl salt (P-9, in 25% ethanol), diethylaminoethyl salicylate.AcOH(P-10, in 25% ethanol), diethylaminoethyl 5-acetamido-acetylsalicylate.HCl(P-58, in 25% ethanol), diethylaminoethyl acetylsalicylsalicylate.HCl salt (P-59, in 25% ethanol), diethylaminoethyl acetylsalicylsalicylsalicylate.HCl salt (P-60, in 25% ethanol) were administered transdermally to the backs (4 cm^2,fur was shaved) of DB/DB mice(SLAC/DB/DB, 10-12 weeks old) once per day (at 8 am) for 5 weeks. The blood glucose levels were measured once per week and blood lipid levels were measured once every other week.

[2] = test system: SLAC:NOD-IDDM, type 1 diabetes; test: Anti-diabetes (type I) activity of HPCs of NSAIAs; assay type: in vivo, mice
Text: 10% aqueous solution of diethylaminoethyl acetylsalicylate.acetylsalicylic acid salt (P-1, […]); 4-acetamidophenyl salicylyldimethylaminobutyrate. HCl (P-6), diethylaminoethyl 5-(2,4-difluorophenyl)acetylsalicylate.5-(2,4-difluorophenyl)acetylsalicylic acid salt (P-8), diethylaminoethyl salicylsalicylate.AcOH(P-9), diethylaminoethyl 5-acetamido-acetylsalicylate. HCl (P-58), diethylaminoethyl 2-(ρ-isobutylphenyl) propionate.citric acid (P-59), diethylaminoethyl acetylsalicylsalicylate. acetylsalicylsalicylsalicylic acid salt (P-60) (equal to of 20 mg/kg of NSAIAs) were administered transdermally to the shaved back (about 1.5 cm^2) of mice twice per day (at 8 am and 5 pm) for 7 weeks.
The blood glucose levels were measured once every 3 days at 4:30 pm (no fasting) from the fourth week to the seventh week as shown in Table 11.

[3] = test system: Human Gastric Cancer HGC-27 cell; test: HGC-27 cell proliferation, MTT assay; assay type: cell-based; settings: 72 hours
Method: The inhibition of cellular proliferation was measured by the modified dimethyl thiazolyl diphenyl tetrazolium salt (MTT) [3-(4,5-dimethylthiazol-2-yl)-2,5-diphenyltetrazolium bromide] assay, based on the ability of live cells to converting thiazolyl blue to dark blue formazan. Approximately 3500 cells of HGC-27 (in 100 μl culture solution) were seeded into 96-well culture plates and were cultured for 16 hours at 37° C. Different concentration solution (100 μl) of Taxol (positive control), chlorambucil, or N,N-diethylaminoethyl 4-[bis(2-chloroethyl)amino]benzenebutyrate.HCl salt (HPC of chlorambucil) were added and incubation continued for 72 hours at 37° C. Then MTT were added and incubation continued at 37° C. for 4 h, and 100 μl DMSO was pipetted to solubilize the formazan product for 30 min at room temperature. The absorbency at 570 nm was measured using Bio-Rad micro-plate reader […].

[4] = test system: human myeloma cell line implanted into mice; test: Survival of mice with multiple myeloma (Example 110, Study B); assay type: in vivo; settings: n=5
Method: Study B: For evaluation of antitumor activity, a human myeloma cell line derived from the ascites of a patient with multiple myeloma was implanted into mice. The experiment was carried out on 17 groups of mice. Control group (A, orally), chlorambucil (group B1: 1 mg/kg, orally, group B2, 3 mg/kg, orally, group B3:1 mg/kg, transdermally, and group B4: 3 mg/kg, transdermally), melphalan (group C1: 1 mg/kg, orally, group C2, 3 mg/kg, orally, group C3:1 mg/kg, transdermally, and group C4: 3 mg/kg, transdermally), N,N-diethylaminoethyl 4-[bis(2-chloroethyl)amino]benzenebutyrate.HBr (the HPC of chlorambucil (group D1: 1 mg/kg, orally, group D2, 3 mg/kg, orally, group D3:1 mg/kg, transdermally, and group D4: 3 mg/kg, transdermally), and 4-[bis(2-chloroethyl)amino]-N-acetyl-L-phenylalanine N,N-diethylaminoethyl ester hydrobromide (the HPC of melphalan) (group E1: 1 mg/kg, orally, group E2, 3 mg/kg, orally, group E3:1 mg/kg, transdermally, and group E4: 3 mg/kg, transdermally).

[5] = test system: human myeloma cell line implanted into mice; test: Survival and weight loss of myeloma mice (Example 111); assay type: in vivo; settings: orally; for Weight Loss: day 21; for Life Elongation Rate / None Disease Rate / Survival Period: n=7
Text: A human myeloma cell line derived from the ascites of a patient with multiple myeloma was implanted into mice. The mice was divided into 11 groups: control group (A, orally), melphalan (B1 and B2, orally), chlorambucil (C1 and C2, orally), N,N-diethylaminoethyl 4-[bis(2-chloroethyl)amino]benzenebutyrate.HBr (D1 and D2, transdermally), 4-[bis(2-chloroethyl)amino]-N-acetyl-L-phenylalanine N,N-diethylaminoethyl ester hydrobromide (E1 and E2, transdermally in 5% aqueous solution), and diethylaminoethyl 4-[bis(2-methylsulfonylethyl)amino]benzenebutyrate.HCl (F1 and F2, transdermally in 5% aqueous solution). The body weight loss of mice was determined on day 21.

[6] = test system: Human breast cancer cells (BCAP-37); test: Human breast cancer xenograft in nude mice
Method: Human breast cancer cells (BCAP-37, 2-3 mm^3 of tumor tissue was used in each mouse) were subcutaneously xenografted into nude mice (BALB, 12 groups, 7 mice each group). […] 50 μl of 5% (equal to 2.5 mg of the HPCs) diethylaminoethyl acetylsalicylate.HCl (P-1, in pure water); 1-piperidinepropyl 2[(2,6-dichlorophenyl)amino]benzene acetate.HCl (P-2, in water), 1-pyrrolidinepropyl 2-(3-benzoylphenyl) propionate.HCl (P-3, in water), 4-piperidinemethyl 2-(3-phenoxyphenyl)propionate.HCl (P-4, in water), 3-piperidinemethyl 2-(ρ-isobutylphenyl) propionate.HCl (P-5, in water), diethylaminoethyl 1-(p-chlorobenzoyl)-5-methoxy-2-methylindole 3-acetate.HCl (P-11, in water), 2-(4-morpholinyl)ethyl (Z)-5-fluoro-2-methyl-1-[(4-methylsulfinyl)phenylmethylene]-1H-indene-3-acetate.

[7] = test system: Human colon cancer cells (LS174J); test: Human colon cancer xenograft in nude mice
Text: Human colon cancer cells (LS174J, 2-3 mm^3 of tumor tissue was used in each mouse) were subcutaneously xenografted into nude mice (BALB).

[8] = 50 μl of 5% topically every 8 hours
[9] = about 50 μl of 5% topically every 12 hours

Structure (SMILES): CCN(CC)CCOC(=O)c1ccccc1OC(=O)c1ccccc1O.Cl [P-9, diethylaminoethyl salicylsalicylate.HCl salt]
- blood glucose, Average (Week 2-5) [1]: 9.4 ± 2.7 mmol/L
- blood glucose, Day 1 [1]: 16.4 ± 2.3 mmol/L
- blood glucose, Average (Week 2-5) (normal SD rats (SLAC/SD)): 5.6 ± 1.2 mmol/L
- blood glucose, Day 1 (normal SD rats (SLAC/SD)): 5.5 ± 1.3 mmol/L
- Cholesterol (total), Day 1 (SLAC/DB/DB obese mice): 7.7 ± 0.5 mmol/L
- Cholesterol (total), Week 5 (SLAC/DB/DB obese mice): 4.9 ± 0.5 mmol/L
- Triglycerides, Day 1 (SLAC/DB/DB obese mice): 4.1 ± 0.4 mmol/L
- Triglycerides, Week 5 (SLAC/DB/DB obese mice): 2.1 ± 0.3 mmol/L
- blood glucose, Day 1 (SLAC/DB/DB obese mice): 14.1 ± 2.5 mmol/L
- blood glucose, Week 5 (SLAC/DB/DB obese mice): 8.7 ± 2.3 mmol/L
- blood glucose, Baseline ([2]; equal to 20 mg/kg of NSAIAs transdermally twice per day for 7 weeks): 16.5 ± 3.6 mmol/L
- blood glucose, Average ([2]; fourth week to seventh week, no fasting, equal to 20 mg/kg of NSAIAs transdermally twice per day): 8.4 ± 1.9 mmol/L

Structure (SMILES): CCN(CC)CCOC(=O)CCCc1ccc(N(CCCl)CCCl)cc1.Cl [HPC of chlorambucil, N,N-diethylaminoethyl 4-[bis(2-chloroethyl)amino]benzenebutyrate.HCl salt]
- HGC-27 cell growth inhibition rate ([3]; 0.5 μM): 15.6%
- HGC-27 cell growth inhibition rate ([3]; 2.0 μM): 28.7%
- HGC-27 cell growth inhibition rate ([3]; 5.0 μM): 42.1%
- HGC-27 cell growth inhibition rate ([3]; 25 μM): 61.6%
- HGC-27 cell growth inhibition rate ([3]; 50 μM): 82.1%
- HGC-27 cell growth inhibition rate ([3]; 75 μM): 96.5%
- HGC-27 cell growth inhibition rate ([3]; 100 μM): 98.1%
- HGC-27 cell growth inhibition rate ([3]; 200 μM): 97.2%
- HGC-27 cell growth inhibition rate ([3]; 500 μM): 98.2%

Structure (SMILES): O=C(O)CCCc1ccc(N(CCCl)CCCl)cc1 [chlorambucil, reference compound]
- inhibition at 0.5 µM ([3]; Homo sapiens, HGC-27, 0.5 μM, read-out: HGC-27 cell growth inhibition rate): 0.3%
- inhibition at 2 µM ([3]; Homo sapiens, HGC-27, 2.0 μM, read-out: HGC-27 cell growth inhibition rate): 1.6%
- inhibition at 5 µM ([3]; Homo sapiens, HGC-27, 5.0 μM, read-out: HGC-27 cell growth inhibition rate): 12.5%
- inhibition at 25 µM ([3]; Homo sapiens, HGC-27, 25 μM, read-out: HGC-27 cell growth inhibition rate): 31.5%
- inhibition at 50 µM ([3]; Homo sapiens, HGC-27, 50 μM, read-out: HGC-27 cell growth inhibition rate): 39.4%
- inhibition at 75 µM ([3]; Homo sapiens, HGC-27, 75 μM, read-out: HGC-27 cell growth inhibition rate): 41.5%
- inhibition at 100 µM ([3]; Homo sapiens, HGC-27, 100 μM, read-out: HGC-27 cell growth inhibition rate): 53.1%
- inhibition at 200 µM ([3]; Homo sapiens, HGC-27, 200 μM, read-out: HGC-27 cell growth inhibition rate): 62.1%
- inhibition at 500 µM ([3]; Homo sapiens, HGC-27, 500 μM, read-out: HGC-27 cell growth inhibition rate): 81%
- Life Elongation Rate ([4]; 1 mg/kg per day, orally): 107%
- Survival Period ([4]; 1 mg/kg per day, orally): 48.7 ± 5.3 days
- Life Elongation Rate ([4]; 1 mg/kg per day, transdermally): 99%
- Survival Period ([4]; 1 mg/kg per day, transdermally): 46.1 ± 3.6 days
- Life Elongation Rate ([4]; 3 mg/kg per day, orally): 151%
- Survival Period ([4]; 3 mg/kg per day, orally): 68.5 ± 4.2 days
- Life Elongation Rate ([4]; 3 mg/kg per day, transdermally): 98%
- Survival Period ([4]; 3 mg/kg per day, transdermally): 44.6 ± 3.6 days
- Weight Loss ([5]; 1.5 mg/kg per day): 10%
- Life Elongation Rate ([5]; 1.5 mg/kg per day): 126%
- None Disease Rate ([5]; 1.5 mg/kg per day): 2/7
- Survival Period ([5]; 1.5 mg/kg per day): 54.8 ± 5.5 days
- Weight Loss ([5]; 3 mg/kg per day): 17%
- Life Elongation Rate ([5]; 3 mg/kg per day): 200%
- None Disease Rate ([5]; 3 mg/kg per day): 3/7
- Survival Period ([5]; 3 mg/kg per day): 87.2 ± 6.9 days

Structure (SMILES): Cl.O=C(Cc1ccccc1Nc1c(Cl)cccc1Cl)OCCCN1CCCCC1 [P-2, 1-piperidinepropyl 2[(2,6-dichlorophenyl)amino]benzene acetate.HCl]
- tumor Size at day 42 [6, 8]: 160 ± 50 mm^3
- Weight of mice at day 42 ([6]; 50 μl of 5% topically every 8 hours, in g (unit assumed)): 23 ± 2
- Weight of mice at day 30 [7, 9]: 22 ± 2
- tumor Size at day 30 [7, 9]: 520 ± 170 mm^3

Structure (SMILES): CC(C(=O)OCC1CCNCC1)c1cccc(Oc2ccccc2)c1.Cl (stereo not shown) [P-4, 4-piperidinemethyl 2-(3-phenoxyphenyl)propionate.HCl]
- tumor Size at day 42 [6, 8]: 190 ± 55 mm^3
- Weight of mice at day 42 ([6]; in vivo): 23 ± 3
- tumor Size at day 30 [7, 9]: 550 ± 128 mm^3
- Weight of mice at day 30 ([7]; in vivo): 22 ± 3

Structure (SMILES): CC(C(=O)OCCCN1CCCC1)c1cccc(C(=O)c2ccccc2)c1.Cl (stereo not shown) [P-3, 1-pyrrolidinepropyl 2-(3-benzoylphenyl) propionate.HCl]
- tumor Size at day 42 [6, 8]: 210 ± 60 mm^3
- Weight of mice at day 42 ([6]; in vivo): 22 ± 3
- tumor Size at day 30 [7, 9]: 550 ± 190 mm^3
- Weight of mice at day 30 ([7]; in vivo): 23 ± 2
